Columns and labels:
FXN = test system: FXN; set-up: method as in PMID 16921367; conditions: cited from earlier work
[1] = Permeability and efflux in Caco2 monolayers; assay type: in vitro ADME; conditions: human
Description: Caco-2 cells (obtained from ECACC) were used after a 21-day cell culture period in 24-well Transwell plates (seeding density of 2×10^5 cells/well). Test compounds (10 µM) were dissolved in Hanks’ Balanced Salt Solution (HBSS) containing 25 mM HEPES (pH 7.4) and added to either the apical or basolateral chambers of a Transwell plate assembly. Duplicate wells were prepared per assay condition. Lucifer Yellow was added to the apical buffer in all wells to assess integrity of the cell layers by monitoring Lucifer Yellow permeation. As Lucifer Yellow (LY) cannot freely permeate lipophilic barriers, a high degree of LY transport indicates poor integrity of the cell layer.
After 1 hr incubation at 37°C, aliquots were taken from the acceptor chamber of each Transwell and added to acetonitrile containing analytical internal standard (carbamazepine) in a 96 well plate. Concentrations of test compound in the samples were measured by high performance liquid-chromatography/mass spectroscopy (LC-MS/MS).
Apparent permeability (Papp) values were calculated from the relationship: [drawing 4] […]
Acceptor = Chamber of Transwell in to which permeation of compound is measured: basal for A>B experiments and apical for B>A experiments.
The Efflux ratios, as an indication of active efflux from the apical cell surface, were calculated using the ratio of Papp B>A/Papp A>B.

B1 (h) = molecular target: T1, B1 (h) (Homo sapiens, UniProt P46663); test: Cerep binding, agonist radioligand; conditions: read-out: % inhibition of control specific binding
T1 construct: purchased Cerep (Diversity Profile)
T1 sequence (P46663 whole entry): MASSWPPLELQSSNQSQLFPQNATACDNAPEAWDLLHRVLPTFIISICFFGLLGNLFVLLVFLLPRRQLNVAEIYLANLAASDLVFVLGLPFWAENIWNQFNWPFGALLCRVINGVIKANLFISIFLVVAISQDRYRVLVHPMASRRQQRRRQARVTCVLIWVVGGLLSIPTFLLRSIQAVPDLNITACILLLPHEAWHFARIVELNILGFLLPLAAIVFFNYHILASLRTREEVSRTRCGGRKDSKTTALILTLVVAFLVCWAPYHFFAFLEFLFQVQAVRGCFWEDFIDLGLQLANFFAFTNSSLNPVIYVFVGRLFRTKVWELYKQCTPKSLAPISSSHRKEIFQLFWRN
Description: (§1) In addition to the HDAC profiling performed, we also queried 4b for any apparent potential off-target effects, which could complicate any finding of efficacy or adverse events in vivo due to ‘polypharmacy’. This was accomplished by screening against a ‘diversity panel’ of 72 binding and 29 enzyme assays, comprised of roughly equal numbers of selective central and peripheral therapeutically relevant targets (Cerep Diversity Profile). This panel included representative targets from diverse enzyme families, G protein coupled receptors, steroid nuclear receptors, voltage- and ligand-gated ion channels. While not totally inclusive, it is a useful tool for discovery compounds to assess their viability as proof of concept molecules to specifically query a particular target. 4b was initially screened at 10 µM in duplicate. The full set of results is provided as Table S1. […] This clean in vitro profile was considered acceptable to proceed to ADME and pharmacokinetic studies.

CRF1 (h) = molecular target: T2, CRF1 (h) (Homo sapiens, UniProt P34998); test: Cerep binding, agonist radioligand; conditions: read-out: % inhibition of control specific binding
T2 construct: purchased Cerep (Diversity Profile)
T2 sequence (P34998 24-415): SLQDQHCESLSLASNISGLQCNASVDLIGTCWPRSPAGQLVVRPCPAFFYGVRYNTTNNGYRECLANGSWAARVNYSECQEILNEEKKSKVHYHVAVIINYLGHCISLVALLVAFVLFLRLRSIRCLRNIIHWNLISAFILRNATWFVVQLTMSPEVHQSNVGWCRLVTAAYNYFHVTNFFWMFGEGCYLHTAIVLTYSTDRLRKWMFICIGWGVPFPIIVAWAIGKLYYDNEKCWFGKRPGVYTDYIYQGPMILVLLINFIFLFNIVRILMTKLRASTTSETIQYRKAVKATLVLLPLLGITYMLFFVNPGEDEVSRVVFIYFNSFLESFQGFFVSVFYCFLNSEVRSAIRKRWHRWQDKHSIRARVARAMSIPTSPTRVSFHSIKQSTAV
Description: as §1

BZD (central) = test: Cerep binding, agonist radioligand; conditions: 10 μM
Description: as §1

ETA (h) = molecular target: T3, ETA (h) (Homo sapiens, UniProt P25101); test: Cerep binding, agonist radioligand; conditions: read-out: % inhibition of control specific binding
T3 construct: purchased Cerep (Diversity Profile)
T3 sequence (P25101 21-427): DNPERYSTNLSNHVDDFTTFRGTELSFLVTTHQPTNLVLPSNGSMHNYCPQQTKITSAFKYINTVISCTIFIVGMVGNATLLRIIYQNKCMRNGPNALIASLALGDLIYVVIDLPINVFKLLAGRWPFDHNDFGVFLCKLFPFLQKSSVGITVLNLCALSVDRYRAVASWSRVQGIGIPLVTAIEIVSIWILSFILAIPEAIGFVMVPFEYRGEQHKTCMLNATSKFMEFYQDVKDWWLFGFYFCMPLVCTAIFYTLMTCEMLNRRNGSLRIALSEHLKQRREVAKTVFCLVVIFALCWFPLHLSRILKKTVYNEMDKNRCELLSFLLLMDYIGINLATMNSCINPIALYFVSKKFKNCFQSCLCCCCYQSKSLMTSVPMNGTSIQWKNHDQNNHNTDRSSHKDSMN
Description: as §1

P2X = test: Cerep binding, agonist radioligand; conditions: 10 μM
Description: as §1

Row | inhibition at 10 µM (ETA (h)) [%] | % inhibition of control specific binding (P2X) [%] | Compound | increase in FXN protein levels (FXN; at 2.5 µM) [fold] | enhancement of FXN mRNA (FXN; at 5 µM) [fold] | Papp A→B at 1 h, 10 µM ([1]; Caco-2, pH 7.4) [×10⁻⁶ cm/s] | efflux ratio at 1 h, 10 µM ([1]; Caco-2, pH 7.4, read-out: effective efflux ratio) | inhibition at 10 µM (B1 (h)) [%] | inhibition at 10 µM (CRF1 (h)) [%] | % inhibition of control specific binding (BZD (central)) [%]
1 | – | – | Nc1ccccc1NC(=O)CCCCCC(=O)Nc1ccccc1 [Compound 4b] | 3.5 | 2.5 | 15.6 | 3.5 | 5 | 0 | 4
2 | 2 | 5 | O=C(CCCCCc1nc2ccccc2[nH]1)Nc1ccccc1 [Compound C1, 6-(1-H-benzo[d]imidazol-2-yl)-N-phenylhexanamide] | – | – | – | – | – | – | –

— publication PMC3433414, “Oral Administration of the Pimelic Diphenylamide HDAC Inhibitor HDACi 4b Is Unsuitable for Chronic Inhibition of HDAC Activity in the CNS In Vivo” (PLoS ONE, 2012)
